Assays:
[1] = molecular target: T1, recombinant human ML-IAPβ (Homo sapiens, UniProt Q96CA5); assay: Fluorescence polarization competition binding assay, ML-IAPβ; conditions: ML-IAP, 2 h
T1 construct: purchased R&D Systems 818-IA
T1 sequence (Q96CA5 1-280 isoform Q96CA5-2): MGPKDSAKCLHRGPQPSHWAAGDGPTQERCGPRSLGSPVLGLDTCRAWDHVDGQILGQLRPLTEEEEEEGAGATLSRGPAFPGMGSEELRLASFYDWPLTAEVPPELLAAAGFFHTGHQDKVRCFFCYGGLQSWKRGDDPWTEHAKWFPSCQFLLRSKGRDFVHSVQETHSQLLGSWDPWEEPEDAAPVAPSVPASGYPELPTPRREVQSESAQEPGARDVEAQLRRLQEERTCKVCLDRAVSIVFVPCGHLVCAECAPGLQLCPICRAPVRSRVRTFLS
Experimental: (§1) Homogeneous, Fluorescence Polarization, Competition Binding Assay Protocol for Affinity Assessment of Compound Binding to XIAP, cIAP-1 and ML-IAPβ BIR3 Domains
(§2) 1× stocks of recombinant human XIAP; BIR3 domain (895-XB), recombinant human cIAP-1 (818-IA) or recombinant human ML-IAPβ (818-IA) from R&D Systems and Fluorescence Polarization (FP) assay tracer (Atto-647 tagged IAP inhibitor probe compound) were prepared in assay buffer consisting of 25 mM Tris-HCL, pH 7.5 (Sigma), 10 mM […] (Sigma), 1 mM DTT (Fluka) and 0.005% TritonX-100 (Pierce). While IAP protein and tracer equilibrated at ambient temp in the dark (30-60 min), 100× stocks of test compound were prepared in 50% DMSO:H2O, serially diluted and spotted (0.5 µL/well) in duplicate wells of a 384-well, flat bottom, polypropylene, black assay plate (Greiner #781209). […] Competition binding between test compounds and assay tracer was initiated by the addition of 50 µL/well of pre-equilibrated IAP protein and assay tracer. Displacement of the assay tracer was measured in a Synergy plate reader from BioTek (Winooski, Vt.) at λex620/λem680 through a 660 nm half-sized dicroich mirror and S/P polarizing filters every 30 min for 3 hr. (See Huang, X., Journal of Biomolecular Screening 8, 2003). The resulting compound dose response data were fit to a one-site binding Ki model in GraphPad Prism from GraphPad Software (San Diego, Calif.).

[2] = molecular target: T2, recombinant human cIAP-1 (Homo sapiens, UniProt Q13490); assay: Fluorescence polarization competition binding assay, cIAP-1; conditions: c-IAP-1, 3 h
T2 construct: purchased R&D Systems 818-IA
T2 sequence (Q13490 whole entry): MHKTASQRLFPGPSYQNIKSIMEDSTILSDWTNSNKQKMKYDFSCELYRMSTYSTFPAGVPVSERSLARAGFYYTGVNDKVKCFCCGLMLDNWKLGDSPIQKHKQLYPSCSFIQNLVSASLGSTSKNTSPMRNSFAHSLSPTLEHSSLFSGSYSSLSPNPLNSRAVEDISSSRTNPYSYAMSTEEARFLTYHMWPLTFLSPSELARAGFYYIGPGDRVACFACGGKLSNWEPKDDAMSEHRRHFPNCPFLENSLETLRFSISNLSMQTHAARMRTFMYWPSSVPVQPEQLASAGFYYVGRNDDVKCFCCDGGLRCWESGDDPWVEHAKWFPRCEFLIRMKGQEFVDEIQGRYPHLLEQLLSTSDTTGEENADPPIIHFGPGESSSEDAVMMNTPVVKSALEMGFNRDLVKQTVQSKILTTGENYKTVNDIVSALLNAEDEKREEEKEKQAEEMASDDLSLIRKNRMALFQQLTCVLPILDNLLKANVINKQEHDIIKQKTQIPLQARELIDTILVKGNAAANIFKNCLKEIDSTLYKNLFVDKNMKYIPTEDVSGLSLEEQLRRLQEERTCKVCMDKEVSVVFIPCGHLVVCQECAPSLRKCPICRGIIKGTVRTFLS
Experimental: as §1, §2

[3] = molecular target: T3, PDPK1 (Homo sapiens, UniProt O15530); assay: PDK1-OMNIA kinase assay (ST28-Sox peptide); format: biochemical; design: purchased Invitrogen, BPS or SignalChem P3001 (Invitrogen), 40080 (BPS), P14-10H (SignalChem); conditions: PDPK1 enzyme pre-incubated 30 min at 25° C. with compound; [ATP]=5 μM; ST28-Sox peptide substrate; read-out: Inhibition/Modification Designation (IC50, PDK1-OMNIA)
T3 sequence (O15530 1-556): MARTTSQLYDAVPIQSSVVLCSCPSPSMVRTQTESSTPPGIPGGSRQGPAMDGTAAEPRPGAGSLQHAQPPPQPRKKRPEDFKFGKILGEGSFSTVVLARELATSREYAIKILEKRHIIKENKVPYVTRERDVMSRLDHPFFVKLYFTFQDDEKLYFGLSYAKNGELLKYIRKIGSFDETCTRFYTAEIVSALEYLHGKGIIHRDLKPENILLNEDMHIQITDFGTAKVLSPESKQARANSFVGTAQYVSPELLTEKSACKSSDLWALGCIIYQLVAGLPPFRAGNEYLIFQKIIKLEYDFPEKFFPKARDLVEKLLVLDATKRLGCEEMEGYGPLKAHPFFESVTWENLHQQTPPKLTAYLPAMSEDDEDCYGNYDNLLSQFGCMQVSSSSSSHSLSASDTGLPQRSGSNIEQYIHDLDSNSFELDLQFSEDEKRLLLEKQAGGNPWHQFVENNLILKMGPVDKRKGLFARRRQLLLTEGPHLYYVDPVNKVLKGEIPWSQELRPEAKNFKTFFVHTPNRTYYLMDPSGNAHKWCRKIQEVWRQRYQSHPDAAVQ
Experimental: Briefly, a 10× stock of PDPK1 enzyme from Invitrogen (P3001) or BPS (40080) or SignalChem (P14-10H), 1.13×ATP (AS001A) and ST28-Sox peptide substrate (KNZ1281C) were prepared in 1× kinase reaction buffer consisting of 20 mM Tris, pH 7.5, 5 mM MgCl2, 1 mM EGTA, 5 mM β-glycerophosphate, 5% glycerol (10× stock, KB002A) and 0.2 mM DTT (DS001A). 5 μL of enzyme were pre-incubated in a Corning (#3574) 384-well, white, non-binding surface microtiter plate (Corning, N.Y.) for 30 min at 25° C. with a 0.5 μL volume of 50% DMSO and serially diluted compounds prepared in 50% DMSO. Kinase reactions were started with the addition of 45 […] of the ST28-Sox peptide substrate and monitored every 71 seconds for 30-60 minutes at λex360/λem485 in a Synergy4 plate reader from BioTek (Winooski, Vt.). At the conclusion of each assay, progress curves from each well were examined for linear reaction kinetics and fit statistics (R^2, 95% confidence interval, absolute sum of squares). Post-lag velocity (+10 minutes to 20+ minutes) from each reaction was estimated from the slope of a plot of relative fluorescence units vs time (minutes) and normalized to the no enzyme and no inhibitor control groups for % Inhibition. The resulting inhibition values were then plotted against inhibitor concentration to estimate IC50 from log [Inhibitor] vs Response, Variable Slope model in GraphPad Prism from GraphPad Software (San Diego, Calif.).
[Reagent] used in provisional protocol(s): Invitrogen—[PDPK1]=5-10 nM, [ATP]=5 μM and [ST28-Sox]=5 μM or 10 μM (ATP KMapp=4-6 μM); BPS—[PDPK1]=10-15 nM, [ATP]=5 μM and [ST28-Sox]=10 μM (ATP KMapp=3-5 μM); SignalChem—[PDPK1]=5-10 nM, [ATP]=5 μM and [ST28-Sox]=5 μM or 10 μM (ATP KMapp ND)

[4] = molecular target: T3, PDPK1; assay: MALDI MS of intact PDPK1 incubated with compound; format: binding; design: purchased Millipore 14-452; conditions: for mass shift of PDPK1: 10-fold excess of compound to protein; for Number of Modifications on Whole Protein: PDPK1 whole protein, MS
Experimental: Intact PDPK1 was incubated for 3 hr at a 10-fold excess of compound XI-27 to protein. 3 μL aliquots of the samples were diluted with 10 μL of 0.1% TFA prior to micro C4 Ziptipping directly onto the MALDI target plate using sinapinic acid as the desorption matrix (10 mg/mL in 0.1% TFA:Acetonitrile 50:50).
Intact PDPK1 was incubated for 3 hr at a 10-fold excess of compound XI-21 to protein. 3 μL aliquots of the samples were diluted with 10 μL of 0.1% TFA prior to micro C4 Ziptipping directly onto the MALDI target plate using sinapinic acid as the desorption matrix (10 mg/mL in 0.1% TFA:Acetonitrile 50:50).
For example, Table 7 lists non-limiting examples of compounds that modify PDPK1 whole protein, the number of modifications per protein and the lysines modified within the protein. […] Also, the lysine modified in PDPK-1 by XI-27, XI-26, XI-22, and XI-21 are not the same for each compound. Without wishing to be bound to any particular theory, the position of the warhead, as presented by the scaffold and tether to the lysines in the binding site, effects different results on the modification of the different lysines in the binding site of PDPK-1.

[5] = tested on: HCT116; assay: HCT116-WB assay; format: cell-based; conditions: Homo sapiens, HCT-116; read-out: HCT116-WB Inhibition Designation
[6] = molecular target: T4, p110α/p85α (PI3Kα) (Homo sapiens, UniProt P42336); assay: HTRF assay, p110α/p85α; format: biochemical; conditions: read-out: PI3Kα-HTRF-IC50 nM Inhibition Designation
T4 construct: purchased BPS Bioscience or Millipore 40620 (BPS Bioscience) or 14-602 (Millipore)
T4 sequence (P42336 whole entry): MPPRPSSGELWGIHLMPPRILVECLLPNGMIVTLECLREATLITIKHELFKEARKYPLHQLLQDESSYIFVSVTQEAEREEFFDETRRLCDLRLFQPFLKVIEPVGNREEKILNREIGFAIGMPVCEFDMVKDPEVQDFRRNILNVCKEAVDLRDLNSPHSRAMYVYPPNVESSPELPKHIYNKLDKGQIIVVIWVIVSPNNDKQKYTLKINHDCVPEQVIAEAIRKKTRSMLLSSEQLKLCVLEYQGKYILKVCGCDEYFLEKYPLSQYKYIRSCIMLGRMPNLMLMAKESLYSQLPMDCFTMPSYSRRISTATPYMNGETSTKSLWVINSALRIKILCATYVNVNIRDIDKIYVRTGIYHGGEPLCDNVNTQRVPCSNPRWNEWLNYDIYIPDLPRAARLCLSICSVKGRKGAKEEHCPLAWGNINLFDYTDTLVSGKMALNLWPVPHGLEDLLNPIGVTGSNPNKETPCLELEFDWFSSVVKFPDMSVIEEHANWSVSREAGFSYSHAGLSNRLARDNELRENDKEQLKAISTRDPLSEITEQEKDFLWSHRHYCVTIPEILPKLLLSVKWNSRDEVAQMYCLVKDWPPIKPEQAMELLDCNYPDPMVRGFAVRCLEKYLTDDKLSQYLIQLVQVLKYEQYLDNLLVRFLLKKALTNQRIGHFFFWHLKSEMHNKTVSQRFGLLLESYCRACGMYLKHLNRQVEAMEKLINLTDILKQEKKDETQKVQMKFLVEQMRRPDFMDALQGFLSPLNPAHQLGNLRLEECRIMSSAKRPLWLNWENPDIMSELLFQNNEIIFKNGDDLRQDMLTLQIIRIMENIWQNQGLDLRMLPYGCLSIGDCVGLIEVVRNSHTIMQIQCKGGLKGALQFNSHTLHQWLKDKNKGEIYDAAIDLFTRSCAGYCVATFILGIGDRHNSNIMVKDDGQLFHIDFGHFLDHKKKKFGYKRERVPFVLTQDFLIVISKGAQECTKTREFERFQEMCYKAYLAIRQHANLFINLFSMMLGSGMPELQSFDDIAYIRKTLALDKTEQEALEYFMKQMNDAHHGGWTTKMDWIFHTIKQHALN
T4 sequence (P27986 whole entry partner): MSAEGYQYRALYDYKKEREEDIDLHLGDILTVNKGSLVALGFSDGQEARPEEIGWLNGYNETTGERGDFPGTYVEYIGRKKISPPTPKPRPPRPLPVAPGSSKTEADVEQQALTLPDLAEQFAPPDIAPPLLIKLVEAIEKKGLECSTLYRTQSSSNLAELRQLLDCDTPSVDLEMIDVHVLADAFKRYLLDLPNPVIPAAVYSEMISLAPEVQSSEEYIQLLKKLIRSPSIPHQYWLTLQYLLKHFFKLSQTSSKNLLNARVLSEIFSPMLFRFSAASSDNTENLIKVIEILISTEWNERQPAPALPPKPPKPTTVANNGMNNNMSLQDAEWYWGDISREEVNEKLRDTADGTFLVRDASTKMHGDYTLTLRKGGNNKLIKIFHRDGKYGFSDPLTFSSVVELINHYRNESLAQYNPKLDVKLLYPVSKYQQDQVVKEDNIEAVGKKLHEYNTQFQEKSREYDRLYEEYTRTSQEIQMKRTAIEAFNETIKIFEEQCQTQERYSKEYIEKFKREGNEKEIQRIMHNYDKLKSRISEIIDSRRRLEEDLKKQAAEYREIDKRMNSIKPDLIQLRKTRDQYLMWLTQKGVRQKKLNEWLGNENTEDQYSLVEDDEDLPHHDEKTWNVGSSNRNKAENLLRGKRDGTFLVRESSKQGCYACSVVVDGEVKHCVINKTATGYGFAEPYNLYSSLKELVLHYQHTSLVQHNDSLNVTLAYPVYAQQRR
Experimental: HTRF Assay Protocol for Potency Assessment Against the Active Form of p110α/p85α:
The mechanics of the assay platform are best described by the vendor (Millipore, Billerica, Mass.) on their website at the following URL: http://www.millipore.com/coa/tech1/74jt4z.
Briefly, Stop solution (Stop A, #33-007 and Stop B, #33-009; 3:1 ratio) and Detection Mix (DMC, #33-015 with DMA, #33-011 and DMB, #33-013; 18:1:1 ratio) were prepared as recommended by the manufacturer ˜2 hrs prior to use. […] Lipid kinase reactions were started with the addition of 5 μL of ATP solution, mixed for 15 sec on a rotary plate shaker and incubated for 15-30 minutes at 25° C. Next, reactions were stopped with a 5 μL addition of Stop solution followed by a 5 μL volume of Detection Mix. […] At the conclusion of each assay, the HTRF ratio from fluorescence emission values for each well was calculated and % Inhibition determined from averaged controls wells. % Inhibition values for each compound re then plotted against inhibitor concentration to estimate IC50 from log [Inhibitor] vs Response, Variable Slope model in GraphPad Prism from GraphPad Software (San Diego, Calif.).

[7] = molecular target: T5, p120γ (PI3Kγ) (Homo sapiens, UniProt P48736); assay: HTRF assay, p120γ; format: biochemical; conditions: PI3Kγ; read-out: PI3Kγ HTRF IC50 Inhibition Designation
T5 construct: purchased BPS Bioscience 40625
T5 sequence (P48736 whole entry): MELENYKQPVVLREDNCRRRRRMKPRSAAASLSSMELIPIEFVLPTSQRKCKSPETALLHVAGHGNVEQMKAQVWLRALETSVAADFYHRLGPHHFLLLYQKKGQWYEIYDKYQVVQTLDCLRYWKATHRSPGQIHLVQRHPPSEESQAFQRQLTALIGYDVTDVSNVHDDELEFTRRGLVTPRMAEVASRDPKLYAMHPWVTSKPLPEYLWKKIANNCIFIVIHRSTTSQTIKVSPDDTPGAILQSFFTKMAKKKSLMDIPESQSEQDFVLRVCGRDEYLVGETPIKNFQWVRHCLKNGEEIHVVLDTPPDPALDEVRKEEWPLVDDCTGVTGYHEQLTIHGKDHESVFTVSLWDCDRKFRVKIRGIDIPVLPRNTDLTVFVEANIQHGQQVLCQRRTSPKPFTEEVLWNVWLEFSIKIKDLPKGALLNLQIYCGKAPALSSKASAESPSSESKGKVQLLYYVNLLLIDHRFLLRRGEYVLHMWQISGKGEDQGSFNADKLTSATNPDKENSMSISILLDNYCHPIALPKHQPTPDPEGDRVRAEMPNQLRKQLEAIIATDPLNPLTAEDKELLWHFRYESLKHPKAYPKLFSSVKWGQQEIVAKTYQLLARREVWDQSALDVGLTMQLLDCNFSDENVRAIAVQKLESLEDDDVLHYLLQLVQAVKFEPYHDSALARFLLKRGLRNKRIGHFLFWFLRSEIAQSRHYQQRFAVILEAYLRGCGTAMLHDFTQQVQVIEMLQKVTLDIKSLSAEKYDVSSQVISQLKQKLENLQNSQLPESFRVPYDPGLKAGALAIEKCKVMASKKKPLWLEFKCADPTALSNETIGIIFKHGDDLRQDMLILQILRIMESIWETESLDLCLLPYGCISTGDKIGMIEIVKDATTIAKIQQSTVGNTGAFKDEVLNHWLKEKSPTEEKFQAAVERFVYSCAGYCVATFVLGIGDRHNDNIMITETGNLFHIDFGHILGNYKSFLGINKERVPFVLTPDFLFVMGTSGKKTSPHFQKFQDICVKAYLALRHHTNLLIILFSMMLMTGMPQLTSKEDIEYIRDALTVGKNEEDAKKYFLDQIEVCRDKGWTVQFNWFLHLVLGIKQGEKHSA
In short: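 End-point competition-binding HTRF with 1-4 nM enzyme and 10 μM di-C8-PIP2, pre-incubated with compound 30 min at 25° C, then 50 μM ATP for 15-30 min at 25° C. HTRF ratio (665/620 nm) gave % inhibition; IC50 from variable-slope log-dose fit.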

## [2H]C([2H])=C([2H])C(=O)Nc1cccc(CNC(=O)[C@@H]2CC[C@@H]3CCCC[C@H](NC(=O)[C@H](C)NC)C(=O)N32)c1 [VII-16]
[1]
  Ki: 100 to 1000 nM
[2]
  Ki: 100 to 1000 nM

## CC(C)(C(N)=O)C(=O)NCCCNc1nc(Nc2cccc(NC(=O)C3CCC(=O)S3)c2)ncc1Br (stereo not drawn) [XI-21]
[3]
  IC50: < 10 nM
[4]; 3 hr, 10-fold excess
  mass shift of PDPK1 as percent: 175%
  modification of PDPK1: complete multiple modification
[4]; 3 hr
  mass shift of PDPK1: 1,009 Da
[4]
  Number of Modifications on Whole Protein: 2

## CC1(C)Cc2nc(N3CCOc4ccc(-c5ccc(C(=O)N6C[C@@H]7C[C@H]6C(=O)O7)cc5)cc43)sc2C(=O)N1 [XXIII-8, (1S,4S)-5-(4-(4-(6,6-dimethyl-4-oxo-4,5,6,7-tetrahydrothiazolo[5,4-c]pyridin-2-yl)-3,4-dihydro-2H-benzo[b][1,4]oxazin-6-yl)benzoyl)-2-oxa-5-azabicyclo[2.2.1]heptan-3-one]
[5]
  IC50: 1000 to 10000 nM
[6]
  IC50: 100 to 1000 nM
[7]
  IC50: 100 to 1000 nM

## CC(C)(C(N)=O)C(=O)NCCCNc1nc(Nc2cccc(NC(=O)C3CSC(=O)C3)c2)ncc1Br (stereo not drawn) [XI-27]
[3]
  IC50: < 10 nM
[4]; 3 hr, 10-fold excess
  modification of PDPK1: complete modification
[4]; 3 hr
  mass shift of PDPK1: 568 Da
[4]
  Number of Modifications on Whole Protein: 1

## CC(C)(C(N)=O)C(=O)NCCCNc1nc(Nc2cccc(NC(=O)CNC(=O)C3CCC(=O)S3)c2)ncc1Br (stereo not drawn) [XI-22]
[3]
  IC50: < 10 nM
[4]
  Number of Modifications on Whole Protein: 2

## CC(C)Oc1c(N(C)Cc2cc3nc(-c4cccc(O)c4)nc(N4CCOCC4)c3s2)c(=O)c1=O [XXII-11]
[5]
  IC50: 10 to 100 nM
[6]
  IC50: 10 to 100 nM
[7]
  IC50: 100 to 1000 nM

## O=C1CC[C@H](C(=O)N2CC=C(c3cc4nc(-c5cccc(O)c5)nc(N5CCOCC5)c4s3)CC2)O1 [XXII-2]
[5]
  IC50: 100 to 1000 nM
[6]
  IC50: 10 to 100 nM
[7]
  IC50: 100 to 1000 nM

## C=CC(=O)N1CCN(CC#Cc2cc3nc(-c4cccc(O)c4)nc(N4CCOCC4)c3s2)CC1 [XXII-3]
[5]
  IC50: 100 to 1000 nM
[7]
  IC50: 100 to 1000 nM

## C=CC(=O)Nc1ccc(Nc2ncc(Br)c(NCCCNC(=O)C(C)(C)C(N)=O)n2)cc1 [XI-39]
[3]
  IC50: 10 to 100 nM
[4]
  Number of Modifications on Whole Protein: 1

## CN[C@@H](C)C(=O)N[C@H]1CCCC[C@H]2CC[C@@H](C(=O)NCc3cccc(C(=O)N4CC5CCC4C(=O)O5)c3)N2C1=O (stereo partly drawn) [VII-43]
[1]
  Ki: > 10000 nM
[2]
  Ki: 1000 to 10000 nM

## C=CS(=O)(=O)Nc1cccc(CNC(=O)[C@@H]2CC[C@@H]3CCCC[C@H](NC(=O)[C@H](C)NC)C(=O)N32)c1 [VII-23]
[1]
  Ki: 10 to 100 nM
[2]
  Ki: < 10 nM

## CC(C)(C(N)=O)C(=O)NCCCNc1nc(Nc2cccc(NC(=O)CNC(=O)C3CSC(=O)C3)c2)ncc1Br (stereo not drawn) [XI-26]
[3]
  IC50: 10 to 100 nM
[4]
  Number of Modifications on Whole Protein: 1

## CN[C@@H](C)C(=O)N[C@H]1CCCC[C@H]2CC[C@@H](C(=O)NCc3cccc(COC(=O)CC(C)=O)c3)N2C1=O [VII-29]
[1]
  Ki: 10 to 100 nM
[2]
  Ki: 1000 to 10000 nM

## CN[C@@H](C)C(=O)N[C@H]1CCCC[C@H]2CC[C@@H](C(=O)N[C@@H]3CCCc4c(NC(=O)C5CCC(=O)O5)cccc43)N2C1=O (stereo partly drawn) [VII-30]
[1]
  Ki: 10 to 100 nM
[2]
  Ki: 10 to 100 nM
